Test system: Rattus norvegicus
Settings: oral
[1] = short-term, duration: 28 days, gavage, M/F, Sprague-Dawley, Clinical Observation: Sedation Paleness + Functional Observational Battery: Forelimb grip strength decrease, Motor activity decrease, Motor …
[2] = short-term, duration: 28 days, gavage, M, Sprague-Dawley, Clinical Observation: Salivation + Urinalysis: Volume increase + Blood Chemistry: Ch E increase, T-CHO increase + Absolute Organ Weight: …
[3] = subchronic, gavage, M, Sprague-Dawley, Clinical Observation: Salivation Clonic convulsion + Body Weight Changes: Body weight gain decrease + Food Consumption: decrease + Water …
[4] = short-term, duration: 28 days, gavage, F, Sprague-Dawley, Deaths + Clinical Observation: Locomotor activity decrease, Abnormal respiratory sound Deep respiration Pale skin Hypothermia Ptosis …
[5] = short-term, duration: 28 days, gavage, M, Sprague-Dawley, Deaths + Clinical Observation: Locomotor activity decrease, Abnormal respiratory sound Deep respiration Pale skin Hypothermia Ptosis …
[6] = subchronic, gavage, M, Sprague-Dawley, Clinical Observation: Soft stool + Urinalysis: pH decrease(trend)Phosphate crystal (grade, frequency) decrease + Histopathology: Stomach-…
[7] = subchronic, gavage, M, Sprague-Dawley, Absolute Organ Weight: Seminal vesicle increase, Prostate increase + Relative Organ Weight: Seminal vesicle increase, Prostate increase

CC(C)(C1CCC(O)CC1)C1CCC(O)CC1 (stereo not given) [4,4'-Propane-2,2-diyldicyclohexanol]
NOEL (subchronic, gavage, M, Sprague-Dawley, Hematology: APTT increase, PT increase + Blood Chemistry: TG increase, TP increase, Ca increasegamma-GTP increase, Glu decrease, Cho …): 20 mg/kg-day

Cc1cc(S(=O)(=O)[O-])c(N)cc1Cl.[Na+]
NOEL (subchronic, gavage, M, Sprague-Dawley, Food Consumption: increase + Urinalysis: pH decrease + Absolute Organ Weight: Kidney increase + Relative Organ Weight: Kidney increase): 300 mg/kg-day

CCOC(N)=O [Urethane]
LOAEL [1]: 100 mg/kg-day
LOEL [1]: 100 mg/kg-day
NOAEL [1]: 20 mg/kg-day
NOEL [1]: 20 mg/kg-day
NOEL (subchronic, drinking water, F, Fischer 344, Deaths + Body Weight Changes: decrease + Water Consumption: decrease + Hematology: WBC decrease, Lympho decrease + Blood Chemistry: BUN …): 10 mg/kg-day
NOEL (subchronic, drinking water, F, Fischer 344, Deaths + Clinical Observation: Thinness, abnormal posture, and ruffled fur + Body Weight Changes: decrease + Water Consumption: decrease + …): 11 mg/kg-day
NOEL (subchronic, drinking water, M/F, Fischer 344, Deaths + Body Weight Changes: decrease + Water Consumption: decrease + Hematology: WBC decrease, Lympho decrease + Blood Chemistry: BUN …): < 16.7 mg/kg-day
NOEL (subchronic, drinking water, M/F, Fischer 344, Deaths + Clinical Observation: Thinness, abnormal posture, and ruffled fur + Body Weight Changes: decrease + Water Consumption: decrease + …): < 16.7 mg/kg-day

CCCC[B-](c1ccccc1)(c1ccccc1)c1ccccc1.CCCC[N+](CCCC)(CCCC)CCCC [Tetrabutylammonium butyltriphenylborate]
NOEL (short-term, duration: 28 days, gavage, M/F, Blood Chemistry: GPT increase, CHE decrease + Histopathology: Thymus-Proliferation, histiocyte Thymus-Atrophy Adrenal-Decreased lipoid): < 3 mg/kg-day

ClCBr [Bromochloromethane]
NOEL (subchronic, duration: 42 days, gavage, M, CD(SD), Absolute Organ Weight: Liver increase + Relative Organ Weight: Liver increase + Necropsy: Stomach-Dark red focus, glandular stomach + …): 30 mg/kg-day

CCCC(C)(COC(N)=O)COC(=O)NC(C)C (stereo not given) [Carisoprodol]
NOEL (subchronic, gavage, M/F, Fischer 344, Deaths + Clinical Observation: Lethargy Ataxia + Absolute Organ Weight: Right kidney increase, Liver increase + Relative Organ Weight: Right…): < 100 mg/kg-day
NOEL (subchronic, gavage, M/F, Fischer 344, Deaths + Clinical Observation: Lethargy Diarrhea Rough hair coat Prostration Urine stain in the vaginal area Ataxia + Body Weight Changes: …): < 100 mg/kg-day

Nc1ccccc1C(=O)O [Anthranilic acid]
NOAEL [2]: 200 mg/kg-day
NOEL [2]: < 200 mg/kg-day

CC(=O)OC1CCCCC1C(C)(C)C (stereo not given) [2-tert-Butylcyclohexyl acetate]
NOAEL [3]: < 50 mg/kg-day
NOEL [3]: < 50 mg/kg-day

O=[N+]([O-])c1ccc(Cl)c([N+](=O)[O-])c1 [1-Chloro-2,4-dinitrobenzene]
NOEL (subchronic, gavage, M, Sprague-Dawley, Relative Organ Weight: Thymus decrease + Histopathology: Stomach/forestomach- Squamous cell hyperplasia Stomach/forestomach -inflammatory …): 1 mg/kg-day

C=CCOC(=O)c1ccccc1C(=O)OCC=C [Diallyl phthalate]
NOEL (subchronic, duration: 13 weeks, gavage, M/F, Fischer 344, Deaths + Histopathology: Liver/periportal-Hepatocellular alteration Liver/periportal-Necrosis Liver/periportal-Fibrosis Liver/bile duct- …): 25 mg/kg-day

O=[N+]([O-])C(Br)(CO)CO [Bronopol]
LOEL [4]: 30 mg/kg-day
NOEL [4]: 10 mg/kg-day
LOEL [5]: 90 mg/kg-day
NOEL [5]: 30 mg/kg-day

CN(C)c1ccc(C(=C2C=CC(=[N+](C)C)C=C2)c2ccccc2)cc1.[Cl-] [Malachite green]
NOEL (subchronic, diet, M/F, Fischer 344, Body Weight Changes: decrease + Hematology: Hct decrease, RBC decrease, Hgb decrease + Blood Chemistry: Cho increase, gamma-GTP increase + …): 12 mg/kg-day

CCCCCl [1-Chlorobutane]
NOEL (subchronic, duration: 13 weeks, gavage, M/F, Fischer 344, Deaths + Clinical Observation: Convulsion + Body Weight Changes: decrease + Histopathology: Spleen-Extramedullary hematopoiesis): 60 mg/kg-day

CCCCC/C=C/C=C/C=O [(E,E)-2,4-Decadienal]
NOAEL (chronic, duration: 14 weeks, gavage, M/F, Fischer 344, Clinical Observation: Lethargy + Body Weight Changes: Mean body weight decrease, Body weight gain decrease + Hematology: WBC decrease, SEG …): 100 mg/kg-day

O=N[O-].[Na+] [Sodium nitrite]
NOEL (chronic, duration: 14 weeks, water, F, Fischer 344, Deaths + Clinical Observation: Brown discoloration in eyes Cyanosis Hypoactive Alopecia + Body Weight Changes: decrease + Water Consumption…): < 40 mg/kg-day
NOEL (chronic, duration: 14 weeks, water, M/F, Fischer 344, Deaths + Clinical Observation: Brown discoloration in eyes Cyanosis Hypoactive Alopecia + Body Weight Changes: decrease + Water Consumption…): < 83.6 mg/kg-day

O=C(O)c1cc(C(=O)O)c(C(=O)O)cc1C(=O)O [Pyromellitic acid]
LOEL [6]: 100 mg/kg-day
NOEL [6]: < 100 mg/kg-day

O=[N+]([O-])c1ccc(Nc2ccc(Nc3ccccc3)c(S(=O)(=O)[O-])c2)c([N+](=O)[O-])c1.[Na+] [C.I. Acid Orange 3]
NOEL (subchronic, duration: 13 weeks, gavage, M/F, Fischer 344, Deaths + Body Weight Changes: decrease + Histopathology: Kidney-Nephrosis Kidney-Suppurative inflammation Kidney/Renal papilla - Necrosis …): 750 mg/kg-day

CCCCCCOCCOCCO [2-[2-(Hexyloxy)ethoxy]ethanol]
NOAEL (subchronic, duration: 53 days, diet, M, SD(CD), Body Weight Changes: Mean body weight decrease + Food Consumption: decrease + Urinalysis: pH decrease + Relative Organ Weight: Liver …): 300 mg/kg-day

CN1C(=O)C(O)N=C(c2ccccc2Cl)c2cc(Cl)ccc21 (stereo not given) [Lormetazepam]
NOEL (subchronic, duration: 35 days, gavage, F, Sprague-Dawley, Clinical Observation: Locomotor activity decrease, Drowsiness Aggression + Body Weight Changes: Body weight gain increase + Food Consumption…): 4 mg/kg-day
NOEL (subchronic, duration: 35 days, gavage, M, Sprague-Dawley, Clinical Observation: Locomotor activity decrease, Drowsiness Aggression + Body Weight Changes: Body weight gain increase + Food Consumption…): 20 mg/kg-day

O.O.[Ba+2].[Cl-].[Cl-] [Barium chloride dihydrate]
NOEL (subchronic, duration: 13 weeks, water, F, Fischer 344, Deaths + Body Weight Changes: decrease + Water Consumption: decrease + Blood Chemistry: Pi increase + Absolute Organ Weight: Kidney increase…): 10 mg/kg-day
NOEL (subchronic, duration: 13 weeks, water, M/F, Fischer 344, Deaths + Body Weight Changes: decrease + Water Consumption: decrease + Blood Chemistry: Pi increase + Absolute Organ Weight: Kidney increase…): 19 mg/kg-day

CC(C)(C)c1cc2nc(-c3ccc(N)cc3)nn2[nH]1
NOEL (short-term, duration: 28 days, gavage, M/F, Deaths + Clinical Observation: Locomotor activity decrease, Piloerection + Body Weight Changes: Gain decrease + Hematology: RBC decrease, …): 2 mg/kg-day

CCCCC(CC)COP(=O)(O)CC(CC)CCCC (stereo not given) [Phosphonic acid, P-(2-ethylhexyl)-, mono(2-ethylhexyl) ester]
NOEL (subchronic, gavage, M, Sprague-Dawley, Hematology: Hgb decrease, Hct decrease + Blood Chemistry: Alb increase, A/G increase + Absolute Organ Weight: Liver increase + Relative …): 30 mg/kg-day

N#[N+]c1ccc2c(S(=O)(=O)[O-])cccc2c1[O-].[Na+]
NOEL (subchronic, gavage, M, Sprague-Dawley, Clinical Observation: Loose stool Mucous stool Soiled perineal region Brownish urine + Body Weight Changes: decrease(trend) + Food …): < 40 mg/kg-day

CC(C)(C)c1cc(-n2nc3ccc(Cl)cc3n2)c(O)c(C(C)(C)C)c1
NOAEL (subchronic, duration: 42 days, gavage, M, CD(SD), Hematology: RBC decrease, NEUT increase, APTT decrease + Blood Chemistry: ALB increase, A/G increase, ALP increase, T-BIL decreasea2-GLOB …): 2.5 mg/kg-day

CC/C=C\CCOC(C)=O [(3Z)-3-Hexenyl acetate]
NOAEL [7]: 1000 mg/kg-day
NOEL [7]: 300 mg/kg-day

CCOP(OCC)OCC [Triethyl phosphite]
NOAEL (subchronic, duration: 32 days, gavage, M/F, Deaths + Clinical Observation: Impaired general condition Emaciation Unkempt fur + Body Weight Changes: Weight gain decrease + Food …): 150 mg/kg-day

Nc1nc(=S)[nH][nH]1 [3-Amino-1,2,4-triazole-5-thiol]
NOEL (subchronic, gavage, M/F, Sprague-Dawley, Deaths + Clinical Observation: White turbid urine SalivationSoft stool + Body Weight Changes: decrease + Food Consumption: decrease + …): 10 mg/kg-day

BrC1CCC(Br)C(Br)CCC1Br (stereo not given) [1,2,5,6-Tetrabromocyclooctane]
NOEL (subchronic, gavage, M, Sprague-Dawley, Food Consumption: decrease, R (recovery day3) + Blood Chemistry: TP increase, Alb increase + Absolute Organ Weight: Liver increase + …): < 40 mg/kg-day

C=CC(F)(F)C(F)(F)C(F)(F)C(F)(F)C(F)(F)C(F)(F)C(F)(F)C(F)(F)F [1H,1H,2H-Perfluoro-1-decene]
NOEL (short-term, duration: 28 days, gavage, M/F, Hematology: Trend of anemia + Blood Chemistry: GOT increase, GPT increase, T-CHO decrease + Absolute Organ Weight: Liver increase + …): 8 mg/kg-day

NNC(=O)CCCCC(=O)NN [Hexanedihydrazide]
NOEL (subchronic, gavage, M, Sprague-Dawley, Clinical Observation: Emaciation R Incontinence of urine R Diarrhea R Loose stool R + Relative Organ Weight: Thymus increase, Kidney …): 85 mg/kg-day

COc1c(Cl)c(Cl)c(Cl)c(Cl)c1Cl [Pentachloroanisole]
NOEL (subchronic, duration: 13 weeks, gavage, M/F, Fischer 344, Deaths + Clinical Observation: Labored respiration + Body Weight Changes: decrease + Blood Chemistry: Ch E decrease + Absolute Organ Weight…): < 40 mg/kg-day

CCC(C)c1cc(C(C)(C)C)cc(-n2nc3ccccc3n2)c1O (stereo not given) [2-(2H-Benzotriazol-2-yl)-6-(butan-2-yl)-4-tert-butylphenol]
NOAEL (subchronic, duration: 42 days, gavage, M, Sprague-Dawley, Hematology: HGB decrease + Blood Chemistry: TP increase, Alb increase, A/G increase, ALP increase, ChE increase + Absolute Organ Weight: …): 4 mg/kg-day
NOEL (subchronic, gavage, M, Sprague-Dawley, Blood Chemistry: TG decrease PL decrease Alb increase A/G increase Alp increase + Absolute Organ Weight: Liver increase + Relative Organ …): < 0.5 mg/kg-day

O=[N+]([O-])/N=C1\NCCN1Cc1ccc(Cl)nc1 [Imidacloprid]
NOEL (chronic, duration: 96 days, gavage, M/F, Body Weight Changes: Weight gain decrease + Hematology: WBC decrease, QT increase + Blood Chemistry: BUN increase, CL increase, IP decrease…): < 150 ppm

c1cc(OCC2CO2)cc(OCC2CO2)c1 (stereo not given) [Diglycidyl resorcinol ether]
NOEL (subchronic, duration: 13 weeks, gavage, M/F, Fischer 344, Deaths + Body Weight Changes: decrease + Histopathology: Stomach/forestomach-Inflammation Stomach/forestomach-Basal cell hyperplasia Stomach…): < 12.5 mg/kg-day

CC(=O)C=Cc1ccccc1 [Methyl styryl ketone]
NOEL (short-term, duration: 28 days, gavage, M/F, Sprague-Dawley, Functional Observational Battery: Salivation Rearing decrease + Urinalysis: KET increase + Blood Chemistry: T-Cho increase + Absolute Organ …): 60 mg/kg-day

S=c1[nH]c2ccccc2[nH]1 [2-Mercaptobenzimidazole]
NOEL (short-term, duration: 28 days, gavage, M/F, Wistar, Body Weight Changes: decrease + Food Consumption: decrease + Hematology: Hct decrease, Plt decrease, WBC decrease, APTT increase + Blood …): < 2 mg/kg-day
